Assay: Storage stability of STI-Cl at room temperature
Type: physicochemical
Text: Attempts to make radiolabeling precursor, triflate, mesylate active leaving group from STI-OH failed because it was easily degraded into a mixture of starting material alcohol and STI-Cl during the purification of chromatography on Silica Gel. The behavior of these β-triflate amines may be due to the participation effect of nitrogen which cause triflate to leave by aliphatic chain cyclisation giving the aziridinium ion, which in turn reacts with the nucleophilic agent OH^−, Cl^−. In order to get a pure precursor, STI-Cl analog was selected as a target compound. The hydroxyl-Benzoic acid (9c) was treated with thionyl chloride to achieve the corresponding chloro-acid chloride dihydrochloride (10d). Subsequent condensation with N-(2-Methyl-5-aminophenyl)-4-(3-pyridyl)-2-pyrimidine-amine (6) in pyridine affords the STI-Cl. […] The Sti-Cl was treated with tetra ammonia fluoride at 80° C. in acetonitrile for 30 mins to generate cold Sti-F. Sti-Cl was also treated with tetra ammonia fluoride at 80° C. in acetonitrile microwave for 5 mins to generate cold Sti-F. The traditional heating method gave more yield and the microwave condition gave more clean reaction. (FIG. 3).

Cc1ccc(NC(=O)c2ccc(CN3CCN(CCCl)CC3)cc2)cc1Nc1nccc(-c2cccnc2)n1 [STI-Cl]
stability: not stable and decomposed at room temperature over two weeks

Reference: US20110097268A1, “RADIOHALOIMATINIBS AND METHODS OF THEIR SYNTHESIS AND USE IN PET IMAGING OF CANCERS” (priority 2006, published 2011)
